The term bioavailability denotes the share of a dose that reaches the circulation, judged against a reference dose that is usually intravenous. A high value points to good availability. For orientation: EC50 means the midpoint of the concentration-response curve. High values mean lower potency in that assay, low ones higher potency in that assay.

The results in this text go back to US20240209028A1, “CNP COMPOUNDS” (priority 2022, published 2024).

The nature of series [1]: PK after i.v. and s.c. administration to domestic LYD pig. The settings on record: female, in vivo. The method, then:
The purpose of this study was to investigate pharmacokinetic and pharmacodynamic properties after intravenous (i.v.) and subcutaneous (s.c.) administration to Gottingen Minipig and domestic LYD pig, and to estimate bioavailability after s.c. dosing. Quantitative plasma analysis of CNP and cGMP levels were performed as described in
Animals and dosing: The pharmacokinetic and pharmacodynamic studies in Gottingen Minipig or domestic LYD pig were conducted at CRO Minerva Imaging or Novo Nordisk A/S, respectively. CNP compounds were dosed to normal female 1) Gottingen minipigs 6-12 months of age with an average weight of 22 kg or 2) domestic LYD pigs 4-5 months of age with and average weight of 80 kg. At least one week prior to dosing, permanent central venous catheters were implanted for blood sampling and intravenous (i.v.) dosing. For subcutaneous (s.c.) dosing, the pigs were ultrasound scanned and the optimal injection area laterally on the neck marked by a permanent tattoo. An insulin pen (NovoPen Echo or NovoPen 4) and insulin needle (NovoFine 32G/4 mm or NovoTwist 32G/5 mm) were used for accurate deposition of the CNP formulations in the subcutaneous fat tissue with the needle perpendicular to the skin.
CNP compounds were formulated according to the principles in General Methods of Preparation—Method G and were either A) 8 mM sodium phosphate, 250 mM glycerol, pH 6.5, B) 5 mM sodium acetate, 250 mM glycerol, pH 4.0, C) 5 mM sodium acetate, 240 mM propylene glycol, pH=4.0, D) 8 mM sodium phosphate, 250 mM glycerol, pH 7.5 or E) 20 mM sodium phosphate, 223 mM propylene glycol, pH 6.0.
Intravenously, the CNP compounds were dosed at 30-60 nmol/kg to Minipig and 15-43 nmol/kg to domestic pig using formulations A-E. Subcutaneously, the CNP compounds were dosed at 55-62 nmol/kg to Minipig and 20-30 nmol/kg to domestic pig using formulations A-D.
Sampling: Blood samples of approximately 1 mL were collected pre dose and up to 14 days post dose into EDTA-coated tubes (8 mM) for cGMP and CNP compound analysis by LC-MS. In few instances, cGMP was only analysed up to 48 hours post dose after intravenous dosing in domestic LYD pig. The blood samples were kept on wet ice for maximum 30 minutes until centrifugation for 10 minutes at 4° C. and minimum 1500G, and the plasma samples were stored at −20° C. until analysis.
Plasma concentration-time profiles were analyzed by non-compartmental PK analysis using Phoenix WinNonlin 8.1, Pharsight Inc., Mountain View, CA, USA. Calculation of the area under the plasma concentration-time curve (AUC) was based on the “linear up log down” method, and uniform weighting was used for estimation of the terminal rate constant (λz). S.c. bioavailability (F) was calculated as the dose-normalized AUC (AUC/dose) after s.c. administration divided by the AUC/dose after i.v. administration. […]

Series [2] in a line: CNP local tolerance study in LYD pigs (s.c. injection, histopathology). Type of series: in vivo, domestic LYD pig. The text has this:
The purpose of this study was to evaluate the local tissue reaction response to subcutaneous injection of CNP compounds in pigs.
Procedure: In domestic pigs, the injection site was subjected to histopathologic examination after subcutaneous dosing. Injections were placed mid-back between the shoulder and hip on both sides of the dorsal midline, and one or two days before injection sites of 2×2 cm were shaved and marked by permanent ink under light anaesthesia. Each injection consisted of 100 or 200 μl formulation with a concentration of approx. 4400 μM. CNP compound formulations were prepared according to the principles in General Methods of Preparation—Method G, and were either A) 8 mM sodium phosphate, 250 mM glycerol, pH 6.5, B) 5 mM sodium acetate, 250 mM glycerol, pH 4.0 or C) 5 mM sodium acetate, 240 mM propylene glycol, pH 4.0 and physiological saline was included as negative control.
On Day 1 the pigs were lightly anaesthetised. An insulin pen (NovoPen 4) and insulin needle (NovoTwist 32G/5 mm) were used for accurate deposition of the CNP formulations in the subcutaneous fat tissue with the needle perpendicular to the skin. On Day 5 (4 days post injection) or 6 (5 days post injection), the pigs were euthanised, and the injection sites were removed and fixed in 4% phosphate buffered neutral formaldehyde in sealed plastic containers. The tissue blocks were prefixed for 2-4 hours in 10% buffered formalin, cut into 2 mm thick slabs with a multi knife, examined for macroscopic changes and finally fixed overnight in cassettes. Two slabs of tissue were selected for light microscopic evaluation where the tissue reaction was maximal or alternatively in the central part of the injection site. Three to four 2-4 μm sections were cut from three levels at 100 μm distance, stained with haematoxylin and eosin (H&E) and evaluated in a light microscope. Histopathological changes were graded on a 5-level scale ((Minimal (Min), Mild (Mil), Moderate (Mod), Marked (Mar) and Severe (Sev)). The studies are summarised in Table 18.
Results: The results are summarised in Table 19. * Necrosis was used as a marker for local subcutaneous reactions; **NAD: No Abnormalities Detected

Series [3] addresses T1, human natriuretic peptide receptor 2 (hNPR2) (Homo sapiens, UniProt P20594).
T1 construct: expressed in transfected cells; host or cells: HEK293 (ATCC CRL-1573), clone 35, co-transfected with pGloSensor-42F
T1 sequence (P20594 23-1047): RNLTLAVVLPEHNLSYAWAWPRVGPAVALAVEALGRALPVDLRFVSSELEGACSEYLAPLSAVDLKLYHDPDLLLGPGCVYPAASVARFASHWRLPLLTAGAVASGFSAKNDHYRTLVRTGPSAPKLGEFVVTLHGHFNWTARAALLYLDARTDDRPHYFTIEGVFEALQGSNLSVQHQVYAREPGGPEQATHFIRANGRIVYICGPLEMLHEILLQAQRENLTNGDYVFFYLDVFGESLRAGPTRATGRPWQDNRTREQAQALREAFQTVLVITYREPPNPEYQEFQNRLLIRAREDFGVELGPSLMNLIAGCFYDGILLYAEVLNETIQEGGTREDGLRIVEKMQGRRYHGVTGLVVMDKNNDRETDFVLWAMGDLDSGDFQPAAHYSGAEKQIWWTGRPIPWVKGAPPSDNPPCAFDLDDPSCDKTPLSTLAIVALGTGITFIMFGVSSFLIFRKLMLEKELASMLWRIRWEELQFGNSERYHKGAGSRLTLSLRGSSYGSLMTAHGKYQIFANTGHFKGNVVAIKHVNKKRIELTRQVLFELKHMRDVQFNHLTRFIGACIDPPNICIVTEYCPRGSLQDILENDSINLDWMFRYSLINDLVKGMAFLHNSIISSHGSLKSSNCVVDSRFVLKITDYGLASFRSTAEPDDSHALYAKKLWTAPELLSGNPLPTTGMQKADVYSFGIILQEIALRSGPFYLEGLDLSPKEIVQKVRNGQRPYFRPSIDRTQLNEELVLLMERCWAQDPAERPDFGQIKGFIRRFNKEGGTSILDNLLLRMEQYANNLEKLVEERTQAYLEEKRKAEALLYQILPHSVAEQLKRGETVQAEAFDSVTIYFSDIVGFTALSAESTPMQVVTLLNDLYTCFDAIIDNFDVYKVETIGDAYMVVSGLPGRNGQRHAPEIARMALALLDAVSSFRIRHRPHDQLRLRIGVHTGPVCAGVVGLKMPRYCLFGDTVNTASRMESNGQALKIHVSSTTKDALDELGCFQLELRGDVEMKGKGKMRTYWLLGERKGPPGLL
Kind of series: In vitro hNPR2 activity assay (cGMP GloSensor reporter, HEK293). In kind it is cell-based. In short, it runs like this: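 Potency is the EC50 from a four-parameter logistic fit, also expressed relative to the in-plate CNP22 control (×100), with at least two replicates. Compounds (ten concentrations, […], HSA-free diluent with 1% OVA, 0.01% Tween20) were incubated 30 min at 37 °C on HEK293 cells co-expressing hNPR2 and a GloSensor cGMP luciferase. Luminescence detected with Bright-Glo.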

Like-named read-outs stand apart in the source and are kept apart here. Starred links: 1 amine or outer side, 2 acyl side, 3 side chain; linkers in the order of their positions; H or OH if unused. Positions of bridges follow the written chain, without caps; N, C: chain ends. Residues, ends and D or L forms follow the SMILES beside them. *: point of attachment. C18 diacid = O=C(O)CCCCCCCCCCCCCCCCC(=O)*; γGlu = O=C(O)[C@H](CCC(=O)[*:2])N[*:1]; AEEA = NCCOCCOCC(=O)O

In series [1] (LYD (domestic), pig, sc), `CC[C@H](C)[C@@H]1NC(=O)[C@H](CCCNC(=N)N)NC(=O)[C@H](CC(=O)O)NC(=O)[C@H](CC(C)C)NC(=O)[C@H](CCCCN)NC(=O)[C@H](CC(C)C)NC(=O)CNC(=O)[C@H](Cc2ccccc2)NC(=O)[C@@H](NC(=O)CNC(=O)[C@H](CCCCN)NC(=O)[C@H](CO)NC(=O)[C@H](CC(C)C)NC(=O)CNC(=O)[C@H](CCCCN)NC(=O)[C@H](CCCCN)NC(=O)[C@H](CCC(N)=O)NC(=O)[C@H](C)NC(=O)CNC(=O)[C@H](Cc2c[nH]cn2)NC(=O)[C@H](CCC(=O)O)NC(=O)COCCOCCNC(=O)COCCOCCNC(=O)CC[C@H](NC(=O)CCCCCCCCCCCCCCCCC(=O)O)C(=O)O)CSSC[C@@H](C(=O)O)NC(=O)CNC(=O)[C@H](CC(C)C)NC(=O)CNC(=O)[C@H](CO)NC(=O)[C@H](CC(C)C)NC(=O)[C@H](CO)NC(=O)CNC1=O` [Compound 1235] registered a bioavailability of 25%. Further, in series [1] (LYD, pig, iv), the clearance is 3.28 mL/h/kg and the half-life was 20 h. The compound also had a half-life in series [1] (LYD, pig, sc) of 29 h.

On to `CC[C@H](C)[C@@H]1NC(=O)[C@H](CCCNC(=N)N)NC(=O)[C@H](CC(=O)O)NC(=O)[C@H](CC(C)C)NC(=O)[C@H](CCCCN)NC(=O)[C@H](CC(C)C)NC(=O)CNC(=O)[C@H](Cc2ccccc2)NC(=O)[C@@H](NC(=O)CNC(=O)[C@H](CCCCN)NC(=O)[C@H](CO)NC(=O)[C@H](CC(C)C)NC(=O)CNC(=O)[C@H](CCCCN)NC(=O)[C@H](CCCCN)NC(=O)[C@H](CC(N)=O)NC(=O)[C@H](C)NC(=O)CNC(=O)[C@H](CCCCN)NC(=O)[C@H](Cc2ccc(O)cc2)NC(=O)[C@H](CCCCN)NC(=O)[C@H](CCCNC(=N)N)NC(=O)[C@H](C)NC(=O)[C@H](CC(N)=O)NC(=O)[C@@H]2CCCN2C(=O)[C@H](Cc2c[nH]cn2)NC(=O)[C@H](CCC(=O)O)NC(=O)[C@H](CCC(N)=O)NC(=O)CNC(=O)[C@@H]2CCCN2)CSSC[C@@H](C(=O)O)NC(=O)CNC(=O)[C@H](CC(C)C)NC(=O)CNC(=O)[C@H](CO)NC(=O)[C@H](CCSC)NC(=O)[C@H](CO)NC(=O)CNC1=O` [Compound 0106], for which, in series [2] (LYD pig, s.c., approx. 4400 μM, 4 or 5 days after injection), the “Number of injections by severity of necrosis: NAD” value is given as 4.

`CC[C@H](C)[C@@H]1NC(=O)[C@H](CCCNC(=N)N)NC(=O)[C@H](CC(=O)O)NC(=O)[C@H](CC(C)C)NC(=O)[C@H](CCCCN)NC(=O)[C@H](CC(C)C)NC(=O)CNC(=O)[C@H](Cc2ccccc2)NC(=O)[C@@H](NC(=O)CNC(=O)[C@H](CCCCN)NC(=O)[C@H](CO)NC(=O)[C@H](CC(C)C)NC(=O)CNC(=O)[C@H](CCCCN)NC(=O)[C@H](CCCCN)NC(=O)[C@H](CC(N)=O)NC(=O)[C@H](C)NC(=O)CNC(=O)[C@H](CCCCN)NC(=O)[C@H](Cc2ccc(O)cc2)NC(=O)[C@H](CCCCN)NC(=O)[C@H](CCCNC(=N)N)NC(=O)[C@H](C)NC(=O)[C@H](CC(N)=O)NC(=O)[C@@H]2CCCN2C(=O)[C@H](Cc2c[nH]cn2)NC(=O)[C@H](CCC(=O)O)NC(=O)[C@H](CCC(N)=O)NC(=O)CNC(=O)[C@@H]2CCCN2)CSSC[C@@H](C(=O)O)NC(=O)CNC(=O)[C@H](CC(C)C)NC(=O)CNC(=O)[C@H](CO)NC(=O)[C@H](CCSC)NC(=O)[C@H](CO)NC(=O)CNC1=O` [compound 0106] showed an EC50 in series [3] (0% HSA, HEK293-hNPR2/GloSensor cells) of 0.18 nM. Also, the “hNPR2 0% HSA. [EC50% rel CNP]” value in series [3] (potency relative to CNP22 (0065)) is 201.1%. Also, the injection site reactions result in series [2] (subcutaneous injections in the pig) is “no observable injection site reactions”.

For `CC[C@H](C)[C@@H]1NC(=O)[C@H](CCCNC(=N)N)NC(=O)[C@H](CC(=O)O)NC(=O)[C@H](CC(C)C)NC(=O)[C@@H]2CCCN2C(=O)[C@H](CC(C)C)NC(=O)CNC(=O)[C@H](Cc2ccccc2)NC(=O)[C@@H](NC(=O)CNC(=O)[C@H](CCCCN)NC(=O)[C@H](CO)NC(=O)[C@H](CC(C)C)NC(=O)CNC(=O)[C@H](CCCCN)NC(=O)[C@H](CCCCN)NC(=O)[C@H](CCC(N)=O)NC(=O)[C@H](C)NC(=O)CNC(=O)[C@H](CCC(=O)O)NC(=O)[C@H](Cc2ccc(O)cc2)NC(=O)COCCOCCNC(=O)COCCOCCNC(=O)CC[C@H](NC(=O)CCCCCCCCCCCCCCCCC(=O)O)C(=O)O)CSSC[C@@H](C(=O)O)NC(=O)CNC(=O)[C@H](CC(C)C)NC(=O)CNC(=O)[C@H](CO)NC(=O)[C@H](CC(C)C)NC(=O)[C@H](CO)NC(=O)CNC1=O` [Compound 1225] ({C18 diacid-γGlu-AEEA-AEEA}-YEGAQKKGLSKGCFGLPLDRIGSLSGLGC-OH; disulfide 13-29), in series [1] (iv, Domestic LYD pig, i.v., read-out: CL (ml/hr/kg), Intravenous PK (converted)), the clearance was 3.23 mL/h/kg. The half-life in series [1] (iv, Domestic LYD pig, i.v., read-out: T½, iv (converted)) is 15 h.
